Test results: patent publication US20150157645A1, “COMBINATION OF A 17-ALPHA-HYDROXYLASE (C17,20-LYASE) INHIBITOR AND A SPECIFIC PI-3K INHIBITOR FOR TREATING A TUMOR DISEASE” (priority 2012, published 2015)
Marks after values point to notes of the source that are not given here.

Key:
[1] = system: human prostate VCap xenograft; test: human prostate VCap xenograft model in SCID mice (studies MIS-32S-12 and MIS-59FVA-12); details: for ΔTumor volume (mm^3): mean ± SEM
Description: (§1) Recently, in vivo anti-tumor efficacy of 1-(2-Chloro-pyridin-4-yl)-3-(4-methyl-pyridin-3-yl)-imidazolidin-2-one was evaluated alone and in combination with COMPOUND C or its hydrochloride salt (a pan PI3K inhibitor) in two human prostate cancer xenograft models, VCap and LnCap, established in SCID mice. The VCap tumors which, express PTEN and over-express wild type AR, were established in chemically-castrated mice. The LnCap tumors which, express mutant AR (T877A) and are PTEN null, were initially established in non-castrated animals which were chemically-castrated at the time of treatment.

[2] = system: human prostate LNCap xenograft; test: human prostate LnCap xenograft model in SCID mice (study MIS-43P-12); format: in vivo; set-up: Average / Delta avg: unit not given here; details: D 300 mg/kg bid, C 30 mg/kg qd; for anti-tumor response (in words): LnCap, single agent, AA 100 mg/kg bid; for T/C [%] / Delta avg / Average: po, C/D 30/300 qd/bid; for Delta avg: change of average tumor volume
Description: as §1

[3] = MIS-32S-12, Day 14, p.o., D 300 mg/kg bid, AA 100 mg/kg bid, C 30 mg/kg qd, C + D 30 qd + 300 bid
[4] = MIS-32S-12, Day 35, p.o., D 300 mg/kg bid, AA 100 mg/kg bid, C 30 mg/kg qd, C + D 30 qd + 300 bid
[5] = MIS-32S-12, Day 35, p.o., D 300 mg/kg bid, AA 100 mg/kg bid, C 30 mg/kg qd, C + D 30 mg/kg qd + 300 mg/kg bid
[6] = MIS-59FVA-12, Day 14, p.o., D 300 mg/kg bid, C 30 mg/kg qd, C + D 30 qd + 300 bid (so in the source)
[7] = MIS-59FVA-12, Day 14, p.o., D 300 mg/kg bid, C 30 mg/kg qd (so in the source)
[8] = MIS-59FVA-12, Day 23, p.o., D 300 mg/kg bid, C 30 mg/kg qd, C + D 30 qd + 300 bid (so in the source)
[9] = MIS-59FVA-12, Day 23, p.o., D 300 mg/kg bid, C 30 mg/kg qd (so in the source)
[10] = MIS-43P-12, day 0 of treatment, E 100 mg/kg bid
[11] = MIS-43P-12, day 4 of treatment, E 100 mg/kg bid
[12] = MIS-43P-12, day 11 of treatment
[13] = MIS-43P-12, day 14 of treatment, E 100 mg/kg bid
[14] = MIS-43P-12, day 18 of treatment, E 100 mg/kg bid
[15] = MIS-43P-12, day 0, E 100 mg/kg bid
[16] = MIS-43P-12, day 4, E 100 mg/kg bid
[17] = MIS-43P-12, day 14, E 100 mg/kg bid
[18] = MIS-43P-12, day 18, E 100 mg/kg bid
[19] = tumor volume (FIG. 3a), MIS-43P-12, day 0 of treatment, E 100 mg/kg bid
[20] = tumor volume, MIS-43P-12, day 4 of treatment, E 100 mg/kg bid
[21] = tumor volume, MIS-43P-12, day 7 of treatment
[22] = tumor volume, MIS-43P-12, day 11 of treatment
[23] = tumor volume, MIS-43P-12, day 14 of treatment, E 100 mg/kg bid
[24] = tumor volume, MIS-43P-12, day 18 of treatment, E 100 mg/kg bid

Structure (SMILES) | ΔTumor volume (mm^3) [1, 3] [mm^3] | ΔTumor volume (mm^3) [1, 4] [mm^3] | T/C [%] [1, 5] | ΔTumor volume (mm^3) [1, 6] [mm^3] | T/C [%] [1, 7] | ΔTumor volume (mm^3) [1, 8] [mm^3] | T/C [%] [1, 9] | anti-tumor response (in words) [2] | T/C [%] [2, 10] [%] | T/C [%] [2, 11] [%] | T/C [%] ([2]; MIS-43P-12, day 7 of treatment) | T/C [%] [2, 12] [%] | T/C [%] [2, 13] [%] | T/C [%] [2, 14] [%] | Delta avg [2, 15] | Delta avg [2, 16] | Delta avg ([2]; MIS-43P-12, day 7) | Delta avg ([2]; MIS-43P-12, day 11) | Delta avg [2, 17] | Delta avg [2, 18] | further results
Nc1cc(C(F)(F)F)c(-c2cc(N3CCOCC3)nc(N3CCOCC3)n2)cn1 [Compound C, 5-(2,6-di-morpholin-4-yl-pyrimidin-4-yl)-4-trifluoromethyl-pyridin-2-ylamine] | −18.9 ± 6.3 | 23.3 ± 21.6 | 5.0*^;$ % | 3.6 ± 7.6 | 4.0%* | 25.6 ± 16.4 | 12.4* % | marginal tumor growth delay | 100 | 56 | 71 | 86 | 75 | 79 | 0 | 29 | 88 | 198 | 261 | 375 | Regression (printed in T/C column) ([1]; MIS-32S-12, Day 14, p.o., C 30 mg/kg qd, C + D 30 mg/kg qd + 300 mg/kg bid): 13.8%*; Survival (alive/total) [1, 3]: 7/7; Survival (alive/total) [1, 4]: 7/7; Survival (alive/total) [1, 6]: 7/7; Survival (alive/total) [1, 8]: 7/7; anti-tumor response (in words) ([1]; VCap, single agent 20 mg/kg qd): tumor growth delay; anti-tumor response (in words) ([1]; VCap, single agent 30 mg/kg qd): tumor regression; Average [2, 19]: 170; Average [2, 20]: 199; Average [2, 21]: 258; Average [2, 22]: 369; Average [2, 23]: 432; Average [2, 24]: 546
Cc1ccncc1N1CCN(c2ccnc(Cl)c2)C1=O [Compound D, 1-(2-Chloro-pyridin-4-yl)-3-(4-methyl-pyridin-3-yl)-imidazolidin-2-one] | 35.6 ± 10.5 | 303.9 ± 57.3 | 65.2*^;$;# % | 36.3 ± 17.0 | 40.3* % | 79.8 ± 20.1 | 38.7*^;# % | marginal tumor growth delay | 100 | 82 | 60 | 85 | 57 | 67 | 0 | 43 | 73 | 197 | 200 | 317 | T/C [%] ([1]; MIS-32S-12, Day 14, p.o., D 300 mg/kg bid, AA 100 mg/kg bid, C 30 mg/kg qd, C + D 30 mg/kg qd + 300 mg/kg bid): 27.2*^$ %; anti-tumor response (in words) ([1]; two separate VCap experiments, single agent, D 300 mg/kg bid, AA 100 mg/kg bid): either slight tumor regression or tumor stasis initially, followed by tumor growth delay; Average [2, 19]: 174; Average [2, 20]: 217; Average [2, 21]: 248; Average [2, 22]: 372; Average [2, 23]: 375; Average [2, 24]: 491
